In US12303845B2, “Method for crystallization of active pharmaceutical ingredients” (Nanoform Finland Oyj, priority 2023, dated 2025):

Assay: Permeability measurements (μFlux)
Type: in vitro ADME
Settings: composition of the disclosure vs bulk ezetimibe, PAMPA membrane
Description: A μFlux instrument connected to the Rainbow instrument (Pion Inc UK Ltd, Forest Row, UK) was used to determine the passive permeability of API from different formulations. The suspensions were loaded to the donor chamber containing 10 mL of SGF (0.025 M HCl pH 1.6) and incubated for 15 min. Thereafter, the content of the donor chamber was converted to FaSSIF medium pH 6.5 by addition of 10 mL of FaSSIF concentrate media and stirring rate of 150 rpm. The receiver compartment contained 20 mL of PION acceptor buffer pH 7.4 with stirring rate of 150 rpm. The permeability was assessed across a gastrointestinal PAMPA membrane (Pion Inc UK Ltd, Forest Row, UK). The suspensions were loaded either at either 40 μg/mL for Ezetimibe or 30 μg/mL for Apalutamide using suspensions prepared at concentration of 5 mg/mL in 1 wt.-% PVPVA suspension vehicle. The temperature was set to 37° C. throughout the measurement. Incubation time was about 24 h. UV-Vis spectra were recorded at 30 s intervals at a wavelength of 293-320 nm using the Pion Rainbow Dynamic with either 10 mm tips for Ezetimibe or 5 mm tips for Apalutamide. API concentrations were calculated using second derivative to avoid interference of undissolved floating particles based on a standard curve (stock solution 5 mg/mL in ethanol). […]

O=C1[C@H](CC[C@H](O)c2ccc(F)cc2)[C@@H](c2ccc(O)cc2)N1c1ccc(F)cc1 [Eze, ezetimibe]
permeability versus bulk API: significantly better
